Experimental data from US10214534B2, “Substituted 2-phenyl (AZA)benzofuran compounds for the treatment of hepatitis C” (BRISTOL-MYERS SQUIBB COMPANY, priority 2014, dated 2019).
Like-named read-outs stand apart in the source and are kept apart here.

Experiments:
[1] = tested on: genotype 1b (Con-1) HCV replicon; assay: HCV replicon luciferase assay; assay type: cell-based; conditions: Hepatitis C virus, 72 h, genotype 1b replicon, Huh-7, Renilla luciferase, 3 days
Method: The cell lines used to evaluate compounds consist of a human hepatocyte derived cell line (Huh-7) that constitutively expresses a genotype 1b (Con-1) HCV replicon or a genotype 1b (Con-1) HCV replicon with an asparagine replacing the cysteine at amino acid 316, or a genotype 2a (JFH-1) replicon, containing a Renilla luciferase reporter gene. These cells were maintained in Dulbecco's modified Eagle medium (DMEM) containing 10% FBS, 100 U/mL penicillin/streptomycin and 1.0 mg/mL G418.
To evaluate compound efficacy, titrated compounds were transferred to sterile 384-well tissue culture treated plates, and the plates were seeded with HCV replicon cells (50 μL at a density of 2.4×10^3 cells/well) in DMEM containing 4% FBS (final DMSO concentration at 0.5%). After 3 days incubation at 37° C., cells were analyzed for Renilla Luciferase activity using the EnduRen substrate (Promega cat #E6485) according to the manufacturer's directions. Briefly, the EnduRen substrate was diluted in DMEM and then added to the plates to a final concentration of 7.5 μM. The plates were incubated for at least 1 h at 37° C. then read on a Viewlux Imager (PerkinElmer) using a luminescence program. The 50% effective concentration (EC50) was calculated using the four-parameter logistic formula noted above.

HCV [2] = conditions: cited from earlier work
HCV [3] = conditions: cited from earlier work; remark: listed apart in the source

Molecule	EC50 ([1]; read-out: EC50 1b (class))	other results
CCOC(=O)c1c(-c2ccc(Oc3cccc(O)c3)cc2)oc2cc([N+](=O)[O-])c(O)cc12 [Compound 1014]	> 1 µM	EC50 ([1]; read-out: EC50 (uM) 1b): 9.94 µM
CCN(c1cc2oc(-c3ccc(Oc4cccc(F)c4)cc3)c(C(=O)NC)c2cc1-c1cccc(C(=O)NC(C)(C)C)c1)S(C)(=O)=O [Compound 1003]	< 0.1 µM	EC50 ([1]; read-out: EC50 (uM) 1b): 0.0023 µM
CCN(c1cc2oc(-c3ccc(Oc4cccc(F)c4)cc3)c(C(=O)NC)c2cc1-c1cccc(C(=O)NC2(C)CC2)c1)S(C)(=O)=O [Compound 1015]	> 1 µM	–
CNC(=O)c1c(-c2ccc(Oc3cccc(F)c3)cc2)oc2nc(CCC(F)(F)F)c(-c3cccc(C(=O)NC(C)(C)C)c3)cc12 [Compound 2005]	< 0.1 µM	–
CNC(=O)c1c(-c2ccc(Oc3cccc(C)c3)cc2)oc2nc(CCC(F)(F)F)c(-c3cccc(C(=O)NC(C)(C)C)c3)cc12 [Compound 2007]	< 0.1 µM	–
CNC(=O)c1c(-c2ccc(Oc3cccc(F)c3)cc2)oc2cc(N(C)S(C)(=O)=O)c(-c3cccc(C(=O)NCC(F)(F)F)c3)cc12 [Compound 1020]	< 0.1 µM	–
CCN(c1cc2oc(-c3ccc(Oc4cccc(F)c4)cc3)c(C(=O)NC)c2cc1-c1cccc(C(=O)NCC(C)(C)CO)c1)S(C)(=O)=O [Compound 1023]	< 0.1 µM	EC50 ([1]; read-out: EC50 (uM) 1b): 0.0028 µM
CCN(c1cc2oc(-c3ccc(Oc4cccc(Cl)c4)cc3)c(C(=O)NC)c2cc1-c1cccc(C(=O)N[C@@H](C)C(F)(F)F)c1)S(C)(=O)=O [Compound 1019]	< 0.1 µM	–
CNC(=O)c1c(-c2ccc(Oc3ccccc3F)cc2)oc2nc(CCC(F)(F)F)c(-c3cccc(C(=O)NC(C)(C)C)c3)cc12 [Compound 2006]	< 0.1 µM	–
CCN(c1cc2oc(-c3ccc(Oc4cccc(OC)c4)cc3)c(C(=O)NC)c2cc1-c1cccc(C(=O)NC(C)(C)C)c1)S(C)(=O)=O [Compound 1006]	< 0.1 µM	–
CNC(=O)c1c(-c2ccc(Oc3ccccn3)cc2)oc2nc(CCC(F)(F)F)c(-c3cccc(C(=O)NC(C)(C)C)c3)cc12 [Compound 2012]	> 1 µM	–
alpha-interferon and ribavirin	–	sustained efficacy, share of patients (HCV [2]): 40%
CNC(=O)c1c(-c2ccc(Oc3cccc(F)c3)cc2)oc2nc(CCC(F)(F)F)c(-c3ccc(OC)c(C(=O)NC4(c5ncccn5)CC4)c3)cc12 [Compound 2014]	< 0.1 µM	–
CNC(=O)c1c(-c2ccc(Oc3ccc(F)cc3)cc2)oc2nc(CCC(F)(F)F)c(-c3cccc(C(=O)NC(C)(C)C)c3)cc12 [Compound 2004]	< 0.1 µM	–
CNC(=O)c1c(-c2ccc(C(C#N)C(N)=O)cc2)oc2nc(CCC(F)(F)F)c(-c3cccc(C(=O)NC(C)(C)C)c3)cc12 (stereo not drawn) [Compound 6001]	0.1 to 1 µM	EC50 ([1]; read-out: EC50 (uM) 1b): 0.34 µM
CCNc1nc2oc(-c3ccc(C)cc3)c(C(=O)NC)c2cc1-c1cccc(C(=O)NC(C)(C)C)c1 [Compound 6002, 5-(3-(tert-butylcarbamoyl)phenyl)-6-(ethylamino)-N-methyl-2-(p-tolyl)furo[2,3-b]pyridine-3-carboxamide]	< 0.1 µM	EC50 ([1]; read-out: EC50 (uM) 1b): 0.0036 µM
CNC(=O)c1c(-c2ccc(Sc3ccccc3)cc2)oc2nc(CCC(F)(F)F)c(-c3cccc(C(=O)NC(C)(C)C)c3)cc12 [Compound 5001]	0.1 to 1 µM	EC50 ([1]; read-out: EC50 (uM) 1b): 0.16 µM
[2H]C([2H])([2H])C(NC(=O)c1cc(-c2cc3c(C(=O)NC)c(-c4ccc(Oc5cccc(F)c5)cc4)oc3cc2N(CC)S(C)(=O)=O)ccc1OC)(C([2H])([2H])[2H])C([2H])([2H])[2H] [Compound 1021]	< 0.1 µM	–
CCN(c1cc2oc(-c3ccc(Oc4ccccc4OC)cc3)c(C(=O)NC)c2cc1-c1cccc(C(=O)NC(C)(C)C)c1)S(C)(=O)=O [Compound 1007]	< 0.1 µM	EC50 ([1]; read-out: EC50 (uM) 1b): 0.024 µM
CCN(CC)c1cc2oc(-c3ccc(Oc4cccc(F)c4)cc3)c(C(=O)NC)c2cc1-c1ccc(O)c(C(N)=O)c1 [Compound 1008]	< 0.1 µM	EC50 ([1]; read-out: EC50 (uM) 1b): 0.013 µM
CNC(=O)c1c(-c2ccc(F)cc2)oc2cc(N(CCO)S(C)(=O)=O)c(C3CC3)cc12 [HCV-796]	–	toxicity during extended dosing (HCV [3]; extended dosing of the combination regimens): hepatic toxicity; HCV RNA levels in patients (HCV [3]; patients, single agent transient, more robust with interferon and ribavirin): reduce HCV RNA levels
CCN(c1cc2oc(-c3ccc(Oc4ccccc4F)cc3)c(C(=O)NC)c2cc1-c1cccc(C(=O)NC(C)(C)C)c1)S(C)(=O)=O [Compound 1004]	< 0.1 µM	–
CCN(c1cc2oc(-c3ccc(Oc4ccc(OC)cc4)cc3)c(C(=O)NC)c2cc1-c1cccc(C(=O)NC(C)(C)C)c1)S(C)(=O)=O [Compound 1005]	0.1 to 1 µM	EC50 ([1]; read-out: EC50 (uM) 1b): 0.12 µM

Molecule	EC50 ([1]; read-out: EC50 1b (class))	other results
CNC(=O)c1c(-c2ccc(Oc3ccc(C(=O)O)cc3)cc2)oc2nc(CCC(F)(F)F)c(-c3cccc(C(=O)NC(C)(C)C)c3)cc12 [Compound 2013]	> 1 µM	–
CNC(=O)c1c(-c2ccc(NCC(F)F)cc2)oc2nc(NCC(F)F)c(-c3cccc(C(=O)NC(C)(C)C)c3)cc12 [Compound 4002]	< 0.1 µM	EC50 ([1]; read-out: EC50 (uM) 1b): 0.0094 µM
CCNc1nc2oc(-c3ccc(C)cc3)c(C(=O)NC)c2cc1-c1cccc(C(=O)NC2(C(F)(F)F)CC2)c1 [Compound 6003, 6-(ethylamino)-N-methyl-2-(p-tolyl)-5-(3-((1-(trifluoromethyl)cyclopropyl)carbamoyl)phenyl)furo[2,3-b]pyridine-3-carboxamide]	< 0.1 µM	EC50 ([1]; read-out: EC50 (uM) 1b): 0.0061 µM
CCN(c1cc2oc(-c3ccc(Oc4cccc(Cl)c4)cc3)c(C(=O)NC)c2cc1-c1cccc(C(N)=O)c1)S(C)(=O)=O [Compound 1016]	< 0.1 µM	–
CNC(=O)c1c(-c2ccc(Oc3ccc(F)cc3)cc2)oc2cc(N(C)S(C)(=O)=O)c(-c3cccc(C(=O)NCC(F)(F)F)c3)cc12 [Compound 1026]	< 0.1 µM	–
CCN(CC)c1cc2oc(-c3ccc(Oc4cccc(F)c4)cc3)c(C(=O)NC)c2cc1-c1ccc(OC)c(C(N)=O)c1 [Compound 1010]	0.1 to 1 µM	–
CNC(=O)c1c(-c2ccc(Oc3ccccc3)cc2)oc2nc(CCC(F)(F)F)c(-c3cccc(C(=O)NC(C)(C)C)c3)cc12 [Compound 2001]	< 0.1 µM	–
CCN(c1cc2oc(-c3ccc(Oc4cccc(F)c4)cc3)c(C(=O)NC)c2cc1-c1cccc(C(=O)N[C@@H](C)C(F)(F)F)c1)S(C)(=O)=O [Compound 1017]	< 0.1 µM	EC50 ([1]; read-out: EC50 (uM) 1b): 0.0062 µM
CCCCOc1ccc(-c2oc3nc(CCC(F)(F)F)c(-c4cccc(C(=O)NC(C)(C)C)c4)cc3c2C(=O)NC)cc1 [Compound 3001]	< 0.1 µM	–
CNC(=O)c1c(-c2ccc(Oc3cccnc3)cc2)oc2nc(CCC(F)(F)F)c(-c3cccc(C(=O)NC(C)(C)C)c3)cc12 [Compound 2011]	< 0.1 µM	–
CCN(CC)c1cc2oc(-c3ccc(Oc4cccc(F)c4)cc3)c(C(=O)NC)c2cc1-c1cccc(C(=O)NC(C)(C)C(=O)O)c1 [Compound 1012]	> 1 µM	EC50 ([1]; read-out: EC50 (uM) 1b): 1.47 µM
CNC(=O)c1c(-c2ccc(Oc3ccccc3C)cc2)oc2nc(CCC(F)(F)F)c(-c3cccc(C(=O)NC(C)(C)C)c3)cc12 [Compound 2008]	< 0.1 µM	–
CNC(=O)c1c(-c2ccc(Oc3ccc(C)cc3)cc2)oc2nc(CCC(F)(F)F)c(-c3cccc(C(=O)NC(C)(C)C)c3)cc12 [Compound 2002]	< 0.1 µM	–
CNC(=O)c1c(-c2ccc(Oc3ccc(OC)cc3)cc2)oc2nc(CCC(F)(F)F)c(-c3cccc(C(=O)NC(C)(C)C)c3)cc12 [Compound 2003]	0.1 to 1 µM	–
[2H]C([2H])([2H])C(NC(=O)c1cc(-c2cc3c(C(=O)NC)c(-c4ccc(Oc5ccc(F)cc5)cc4)oc3cc2N(CC)S(C)(=O)=O)ccc1OC)(C([2H])([2H])[2H])C([2H])([2H])[2H] [Compound 1022]	< 0.1 µM	–
CNC(=O)c1c(-c2ccc(Oc3ccccc3OC)cc2)oc2nc(CCC(F)(F)F)c(-c3cccc(C(=O)NC(C)(C)C)c3)cc12 [Compound 2010]	< 0.1 µM	–
CNC(=O)c1c(-c2ccc(OCC(F)(F)F)cc2)oc2nc(CCC(F)(F)F)c(-c3cccc(C(=O)NC(C)(C)C)c3)cc12 [Compound 3002]	< 0.1 µM	–
CCN(c1cc2oc(-c3ccc(Oc4ccccc4)cc3)c(C(=O)NC)c2cc1-c1cccc(C(=O)NC(C)(C)C)c1)S(C)(=O)=O [Compound 1001]	< 0.1 µM	–
CNC(=O)c1c(-c2ccc(N3CCCC3)cc2)oc2nc(CCC(F)(F)F)c(-c3cccc(C(=O)NC(C)(C)C)c3)cc12 [Compound 4001]	> 1 µM	–
CCN(c1cc2oc(-c3ccc(Oc4cccc(F)c4)cc3)c(C(=O)NC)c2cc1-c1cccc(C(N)=O)c1)S(C)(=O)=O [Compound 1018]	< 0.1 µM	–
CNC(=O)c1c(-c2ccc(Oc3cccc(OC)c3)cc2)oc2nc(CCC(F)(F)F)c(-c3cccc(C(=O)NC(C)(C)C)c3)cc12 [Compound 2009]	< 0.1 µM	–
CCN(c1cc2oc(-c3ccc(Oc4ccc(F)cc4)cc3)c(C(=O)NC)c2cc1-c1cccc(C(=O)NC(C)(C)C)c1)S(C)(=O)=O [Compound 1002]	< 0.1 µM	–
CCNc1cc2oc(-c3ccc(Oc4cccc(F)c4)cc3)c(C(=O)NC)c2cc1-c1cccc(C(=O)NC(C)(C)CC(=O)O)c1 [Compound 1013]	0.1 to 1 µM	–
